{"source": "patent US9169295B2", "about": "“Macrocycles and macrocycle stabilized peptides” (Bristol-Myers Squibb Company, priority 2010, dated 2015)", "key": {"[1]": {"details": "other bond"}, "[2]": {"assay": "far-UV circular dichroism (CD) spectra with secondary structure estimated by deconvolution (α-helicity of MSP vs linear peptide)", "assay_type": "physicochemical", "details": "25° C.", "method": "To examine the α-helicity of the macrocycle stabilized peptides prepared according to the methods of the present invention, the far-UV circular dichrosim (CD) spectra of linear and macrocyclic peptides were measured and compared. Linear peptide of Example 93 and MSP of Example 93 as dry powder were prepared. A sample of each was weighed into a fresh 20 mL glass vial, and dissolved in anhydrous methanol (B&J), with vortexing for ˜1 min, to yield solutions with concentrations of 200 μM. The concentrations were based on the observed mass of peptide and the respective formula weights. The solutions were transferred to 1.8 mL polypropylene tubes, and centrifuged in a table top microcentrifuge for 5 min at rt and 14,000 rpm to pellet any insoluble material. The supernatants were transferred to clean 1.8 mL tubes for preparing final samples for analysis by circular dichroism (CD). Two sets of samples were prepared, one in 100% methanol at 200 μM peptide, the other in 50% aqueous methanol at 100 μM peptide prepared by adding an equal volume of ddH2O to stock methanol solutions.\nSamples were transferred to clean 1 mm quartz cuvettes and CD analysis performed in a JASCO J=815 instrument, and temperature maintained at 25° C. Each peptide sample was scanned from 200-450 nm, using a bandwidth of 1.00 nm, standard sensitivity, data pitch of 0.1 nm, digital integration time of 4.0 sec, a scan speed of 20 nm/min, and 6 acquisitions averaged per sample. Blank solvent samples (100% methanol and 50% aqueous methanol) were recorded simultaneously and subtracted from the peptide spectra prior to final analysis. For calculation of mean residue molar ellipticity (Θ^MRW), the peptide concentration was multiplied by 12 to reflect the number of peptide residues in each molecule. Following blank corrections, the CD data for each peptide in each solvent was corrected for total mean residue ellipticity, and the secondary structure composition estimated by deconvolution using CDPRO module within the JASCO software. Three different algorithms were used for convolution (SELCON, CDSSTR and CONTIN), using the data obtained from 200-240 nm and a 56 protein reference data set. Each algorithm yielded similar distribution of secondary structure elements, and the final results reported as the mean and standard deviation from the three deconvolutions.\nThe deconvolution algorithms yield secondary structural elements of two types of α-helical structure, two types of […] structure, β-turn structure, and unstructured or random structure. The results reflect the average of summed α-helical forms, summed β-strand forms, the β-turn and unstructured forms from the three algorithms for the peptides in 100% methanol. The overlaid spectra illustrate the difference in signal in the far uv-region (200-240 nm) for the two related peptides in 100% methanol."}, "[3]": {"details": "the molecule shown is the open-chain precursor; other bond; 16-membered ring; TfOH; MeNO2; 13.4 mM; 25.0 °C"}, "[4]": {"details": "50% aqueous methanol, 100 μM peptide"}, "[5]": {"details": "100% methanol, 200 μM peptide, CD 200-240 nm, mean of three deconvolution algorithms"}, "[6]": {"details": "from (5-(hydroxymethyl)thiazol-2-yl)-Val(D/L)-Ala-Ala-Ala-Ala-Tyr-NH2?, 25-membered ring, TfOH, MeNO2, 6.0 mM, 25.0 °C, 2 steps"}, "[7]": {"details": "from (5-(hydroxymethyl)thiazol-2-yl)-Val(D/L)-Ala-Ala-Tyr-NH2?, 19-membered ring, TfOH, MeNO2, 11.0 mM, 25.0 °C, 2 steps"}, "[8]": {"details": "from (5-(hydroxymethyl)thiazol-2-yl)-Val(D/L)-Gly-Tyr-NH2?, 16-membered ring, TfOH, MeNO2, 25.0 °C, 2 steps"}}, "note": "Read-outs that look alike come from different tables or passages of the source.", "data": [{"compound": "C[C@@H]1NC(=O)CNC2=NC=C(Cc3cc(ccc3O)C[C@@H](C(=O)NCC(=O)O)NC(=O)[C@H](C)NC(=O)[C@H](C)NC1=O)S2", "values": [{"measurement": "ring closure, yield after HPLC", "setting": "[1]; from (5-(hydroxymethyl)thiazol-2-yl)-Gly-Ala-Ala-Ala-Tyr-Gly-OtBu?, 22-membered ring, TfOH, NMM quench, nitromethane, 11.8 mM, 25.0 °C", "result": 42, "unit": "%"}]}, {"compound": "C[C@H](NC(=O)OCC1c2ccccc2-c2ccccc21)C(=O)N[C@@H](C)C(=O)NNC(=O)[C@@H](C)[C@@H](Cc1ccc(O)cc1)C(=O)N[C@@H](C)C(=O)N[C@@H](C)C(=O)NCC(=O)N[C@H]1Cc2ccc(O)c(c2)CC2=CN=C(NCCCNC(=O)[C@H](C)NC(=O)[C@H](C)NC(=O)[C@H](C)NC1=O)S2", "note": "[Example 91, C-terminal Macrocycle Peptide]", "values": [{"measurement": "unstructured conformation", "setting": "[2]; [4]", "result": 32, "unit": "%"}, {"measurement": "α-helical structure", "setting": "[2]; [4]", "result": 23, "unit": "%"}, {"measurement": "β-structure", "setting": "[2]; [4]", "result": 45, "unit": "%"}, {"measurement": "unstructured conformation", "setting": "[2]; [5]", "result": 27, "unit": "%"}, {"measurement": "α-helical conformation", "setting": "[2]; [5]", "result": 53, "unit": "%"}, {"measurement": "β-structure (β-strand and β-turn conformation)", "setting": "[2]; [5]", "result": 22, "unit": "%"}]}, {"compound": "COc1ccc2cc1CC1=CN=C(NCC(=O)N[C@@H](C)C(=O)NCC(=O)NCC(=O)N3C[C@H](O)[C@@H](O)[C@H]3C2)S1", "note": "[Macrocycle Anisomycin-GGAG-Thia]", "values": [{"measurement": "ring closure, yield after HPLC", "setting": "[1]; from (S)-N-(2-(2-((2R,3S,4S)-3,4-Dihydroxy-2-(4-methoxybenzyl)pyrrolidin-1-yl)-2-oxoethylamino)-2-oxoethyl)-2-(2-(5-(hydroxymethyl)thiazol-2-ylamino)acetamido)propanamide?, 22-membered ring", "result": 53.2, "unit": "%"}]}, {"compound": "CC[C@H](C)[C@@H]1NC(=O)[C@@H](NC(=O)OCC2c3ccccc3-c3ccccc32)Cc2ccc(OC)c(c2)CC2=CN=C(NCC(=O)NC[C@@H](C(=O)O)NC(=O)[C@H](CCC(=O)OC)NC(=O)CNC1=O)S2", "note": "[Macrocycle]", "values": [{"measurement": "ring closure, yield after HPLC", "setting": "[1]; from (5S,8S,14S,17S)-8-((S)-sec-butyl)-1-(9H-fluoren-9-yl)-17-((2-((5-(hydroxymethyl)thiazol-2-yl)amino)acetamido)methyl)-14-(3-methoxy-3-oxopropyl)-5-(4-methoxybenzyl)-3,6,9,12,15-pentaoxo-2-oxa-4,7,10,13,16-pentaazaoctadecan-18-oic acid, 26-membered ring, TfOH, NMM quench, nitromethane, 5.57 mM, 25.0 °C", "result": 40.3, "unit": "%"}]}, {"compound": "C[C@@H]1NC(=O)CNC2=NC=C(Cc3cc(ccc3O)C[C@@H](C(=O)NCC(=O)O)NC(=O)[C@H](C)NC(=O)[C@H](C)NC1=O)S2", "note": "[Macrocycle]", "values": [{"measurement": "ring closure, yield after HPLC", "setting": "[1]; from (5-(hydroxymethyl)thiazol-2-yl)-Gly-Ala-Ala-Ala-Tyr-Gly-OtBu?, 22-membered ring, TfOH, NMM quench, nitroethane, 5.7 mM, 25.0 °C", "result": 35, "unit": "%"}]}, {"compound": "C[C@@H]1NC(=O)[C@H](C)NC(=O)[C@H](C)NC(=O)[C@@H](N)Cc2ccc(O)c(c2)CC2=CN=C(NCCCNC1=O)S2", "note": "[Macrocycle]", "values": [{"measurement": "ring closure, yield after HPLC", "setting": "[1]; from Boc-Tyr-Ala-Ala-Ala-NH-(CH2)3-NH-[5-(hydroxymethyl)thiazol-2-yl]?, 24-membered ring, TfOH, NMM quench, nitromethane, 9.9 mM", "result": 15.4, "unit": "%"}]}, {"compound": "C[C@H](NC(=O)[C@H](C)NC(=O)CNC(=O)[C@@H]1Cc2ccc(O)c(c2)CC2=CN=C(NCC(=O)N[C@@H](C)C(=O)N[C@@H](C)C(=O)N[C@@H](C)C(=O)N1)S2)C(N)=O", "note": "[Macrocycle]", "values": [{"measurement": "ring closure, yield after HPLC", "setting": "[1]; from (5-(hydroxymethyl)thiazol-2-yl)-Gly-Ala-Ala-Ala-Tyr-Gly-Ala-Ala-NH2?, 22-membered ring, TfOH, NMM quench, nitroethane/TfOH 1:1, 5.4 mM, 25.0 °C", "result": 62, "unit": "%"}]}, {"compound": "C[C@@H]1NC(=O)[C@H](C)NC(=O)[C@H](Cc2ccccc2)NC(=O)CNC2=NC=C(Cc3cc(ccc3O)C[C@@H](C(N)=O)NC1=O)S2", "note": "[Thia-G-F-A-A-Y—CONH2 (SEQ ID NO. 10) macrocycle]", "values": [{"measurement": "ring closure, yield after HPLC", "setting": "[1]; from (5-(hydroxymethyl)thiazol-2-yl)-Gly-Phe-Ala-Ala-Tyr-NH2?, 22-membered ring, TfOH, MeNO2, 11.5 mM, 25.0 °C, 2 steps", "result": 68.5, "unit": "%"}]}, {"compound": "CC(C)[C@@H]1NC2=NC=C(Cc3cc(ccc3O)C[C@@H](C(N)=O)NC(=O)[C@H](C)NC(=O)[C@H](C)NC(=O)[C@H](C)NC(=O)[C@H](C)NC1=O)S2", "note": "[Thia-V(d)AAAAY]", "values": [{"measurement": "ring closure, yield after HPLC", "setting": "[1]; [6]", "result": 22.3, "unit": "%"}]}, {"compound": "CC(C)[C@H]1NC2=NC=C(Cc3cc(ccc3O)C[C@@H](C(N)=O)NC(=O)CNC(=O)[C@H](C)NC(=O)[C@H](C)NC1=O)S2", "note": "[Thia-V(d)AAGY Macrocycle]", "values": [{"measurement": "ring closure, yield after HPLC", "setting": "[1]; from (5-(hydroxymethyl)thiazol-2-yl)-dVal-Ala-Ala-Gly-Tyr-NH2?, 22-membered ring, TfOH, MeNO2, 6.83 mM, 25.0 °C, 2 steps", "result": 38.7, "unit": "%"}]}, {"compound": "CC(C)[C@H]1NC2=NC=C(Cc3cc(ccc3O)C[C@@H](C(N)=O)NC(=O)[C@H](C)NC(=O)[C@H](C)NC1=O)S2", "note": "[Thia-V(d)AAY]", "values": [{"measurement": "ring closure, yield after HPLC", "setting": "[1]; [7]", "result": 16.4, "unit": "%"}]}, {"compound": "CC(C)[C@H]1NC2=NC=C(Cc3cc(ccc3O)C[C@@H](C(N)=O)NC(=O)CNC1=O)S2", "note": "[Thia-V(d)GY]", "values": [{"measurement": "ring closure, yield after HPLC", "setting": "[1]; [8]", "result": 22, "unit": "%"}]}, {"compound": "CC(C)[C@@H]1NC2=NC=C(Cc3cc(ccc3O)C[C@@H](C(N)=O)NC(=O)[C@H](C)NC(=O)[C@H](C)NC(=O)[C@H](C)NC(=O)[C@H](C)NC1=O)S2", "note": "[Thia-V(l)AAAAY (SEQ ID NO. 12)]", "values": [{"measurement": "ring closure, yield after HPLC", "setting": "[1]; [6]", "result": 35.2, "unit": "%"}]}, {"compound": "CC(C)[C@@H]1NC2=NC=C(Cc3cc(ccc3O)C[C@@H](C(N)=O)NC(=O)CNC(=O)[C@H](C)NC(=O)[C@H](C)NC1=O)S2", "note": "[Thia-V(l)AAGY (SEQ ID NO. 13) Macrocycle]", "values": [{"measurement": "ring closure, yield after HPLC", "setting": "[1]; from (5-(hydroxymethyl)thiazol-2-yl)-Val-Ala-Ala-Gly-Tyr-NH2?, 22-membered ring, TfOH, MeNO2, 6.45 mM, 25.0 °C, 2 steps", "result": 52.7, "unit": "%"}]}, {"compound": "CC(C)[C@H]1NC2=NC=C(Cc3cc(ccc3O)C[C@@H](C(N)=O)NC(=O)[C@H](C)NC(=O)[C@H](C)NC1=O)S2", "note": "[Thia-V(l)AAY (SEQ ID NO. 11)]", "values": [{"measurement": "ring closure, yield after HPLC", "setting": "[1]; [7]", "result": 11, "unit": "%"}]}, {"compound": "CC(C)[C@H]1NC2=NC=C(Cc3cc(ccc3O)C[C@@H](C(N)=O)NC(=O)CNC1=O)S2", "note": "[Thia-V(l)GY]", "values": [{"measurement": "ring closure, yield after HPLC", "setting": "[1]; [8]", "result": 19, "unit": "%"}]}, {"compound": "C[C@@H]1NC(=O)CNC2=NC=C(Cc3cc(ccc3O)C[C@@H](C(N)=O)NC(=O)[C@H](C)NC1=O)S2", "note": "[“Thia-G-A-A-Y” (SEQ ID NO. 9) Macrocycle]", "values": [{"measurement": "ring closure, yield after HPLC", "setting": "[1]; from (5-(hydroxymethyl)thiazol-2-yl)-Gly-Ala-Ala-Tyr-NH2?, 19-membered ring, TfOH, MeNO2, 14.7 mM, 25.0 °C, 2 steps", "result": 70.2, "unit": "%"}]}, {"compound": "C[C@@H]1NC(=O)CNC2=NC=C(Cc3cc(ccc3O)C[C@@H](C(N)=O)NC1=O)S2", "note": "[“Thia-G-A-Y” Macrocycle]", "values": [{"measurement": "ring closure, yield after HPLC", "setting": "[1]; from (5-(hydroxymethyl)thiazol-2-yl)-Gly-Ala-Tyr-NH2, 16-membered ring, TfOH, MeNO2, 7.0 mM, 25.0 °C", "result": 56, "unit": "%"}]}, {"compound": "(5-(hydroxymethyl)thiazol-2-yl)-Gly-Gly-Tyr-NH2?", "values": [{"measurement": "ring closure, conversion", "setting": "[3]", "result": 60, "unit": "%"}]}]}
